ChEMBL document CHEMBL1201862, “PubChem BioAssay data set” (2004)
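A five-concentration, 48-hour dose response in 96-well plates underlies each endpoint, interpolated linearly between surrounding concentrations. Here, GI50 denotes the concentration required for 50% inhibition of growth.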 Active and inactive are the calls of the source. Rule as the data show it: active = GI50 up to about 1.1 µM and inactive = higher.

Experiments:
Assay in all cases: DTP human tumour cell line panel, 48 h
[1] = tested on: SK-MEL-5
[2] = tested on: SNB-75
[3] = tested on: SF-295
[4] = tested on: SN12C
[5] = tested on: T47D
[6] = tested on: MDA-N
[7] = tested on: NCI-H460
[8] = tested on: OVCAR-4
[9] = tested on: CAKI-1
[10] = tested on: MCF7
[11] = tested on: HOP-92
[12] = tested on: HOP-62
[13] = tested on: HT-29
[14] = tested on: NCI-H23
[15] = tested on: KM12
[16] = tested on: A549
[17] = tested on: COLO 205
[18] = tested on: Hs-578T
[19] = tested on: IGROV-1
[20] = tested on: U-251
[21] = tested on: SNB-19
[22] = tested on: OVCAR-3
[23] = tested on: HCT-15
[24] = tested on: SR
[25] = tested on: OVCAR-5
[26] = tested on: OVCAR-8
[27] = tested on: RXF 393
[28] = tested on: UACC-257
[29] = tested on: SW-620
[30] = tested on: M14
[31] = tested on: RPMI-8226
[32] = tested on: MDA-MB-435
[33] = tested on: HL-60
[34] = tested on: NCI/ADR-RES
[35] = tested on: EKVX
[36] = tested on: NCI-H226
[37] = tested on: Malme-3M
[38] = tested on: NCI-H522
[39] = tested on: HCT-116
[40] = tested on: BT-549
[41] = tested on: SK-MEL-28
[42] = tested on: K562
[43] = tested on: SF-268
[44] = tested on: 786-0
[45] = tested on: PC-3
[46] = tested on: UACC-62
[47] = tested on: SK-MEL-2
[48] = tested on: LOX IMVI
[49] = tested on: DU-145
[50] = tested on: SF-539
[51] = tested on: HCC 2998
[52] = tested on: MOLT-4
[53] = tested on: MDA-MB-231
[54] = tested on: TK-10
[55] = tested on: CCRF-CEM
[56] = tested on: ACHN
[57] = tested on: UO-31
[58] = tested on: A498
[59] = tested on: SK-OV-3

In the case of `Cc1cc(N)ccc1/N=N\c1ccc(S(=O)(=O)CCOS(=O)(=O)O)cc1`, the GI50 [1] is reported as 0.287 µM (active), the GI50 [2] is reported as 1.04 µM (active) and the GI50 [3] is reported as 2.63 µM (inactive). The GI50 [4] was 0.463 µM (active), the GI50 [5] was 12.2 µM (inactive) and the GI50 [6] was 0.282 µM (active). The GI50 [7] was 3.44 µM (inactive), the GI50 [8] was 10.5 µM (inactive) and the GI50 [9] was 1.88 µM (inactive). For the same compound, the GI50 [10] was 0.614 µM (active), the GI50 [11] was 5.02 µM (inactive) and the GI50 [12] was 6.1 µM (inactive). The GI50 [13] was 0.767 µM (active), the GI50 [14] was 0.7 µM (active) and the GI50 [15] was 2.87 µM (inactive). The GI50 [16] was 3.78 µM (inactive), the GI50 [17] was 2.07 µM (inactive) and the GI50 [18] was 5.08 µM (inactive). The GI50 [19] was 0.713 µM (active), the GI50 [20] was 3.05 µM (inactive) and the GI50 [21] was 4.72 µM (inactive). The GI50 [22] was 3.45 µM (inactive), the GI50 [23] was 0.346 µM and the GI50 [24] was 0.488 µM (active). For the same compound, the GI50 [25] was 20.3 µM (inactive), the GI50 [26] was 0.356 µM (active) and the GI50 [27] was 10.8 µM (inactive). The GI50 [28] was 11.1 µM (inactive), the GI50 [29] was 0.368 µM (active) and the GI50 [30] was 0.513 µM (active). The GI50 [31] was 1 µM (active), the GI50 [32] was 0.216 µM (active) and the GI50 [33] was 0.948 µM (active). For the same compound, the GI50 [34] was 0.41 µM (active), the GI50 [35] was 27 µM (inactive) and the GI50 [36] was 3.37 µM (inactive). For the same compound, the GI50 [37] was 1.99 µM (inactive), the GI50 [38] was 0.274 µM (active) and the GI50 [39] was 0.34 µM (active). The GI50 [40] was 1.53 µM (inactive), the GI50 [41] was 1.69 µM (inactive) and the GI50 [42] was 0.352 µM (active). For the same compound, the GI50 [43] was 6.11 µM (inactive), the GI50 [44] was 0.414 µM (active) and the GI50 [45] was 0.292 µM (active). For the same compound, the GI50 [46] was 1.57 µM (inactive), the GI50 [47] was 0.605 µM (active) and the GI50 [48] was 0.343 µM (active). The GI50 [49] was 26 µM (inactive), the GI50 [50] was 2.46 µM (inactive) and the GI50 [51] was 2.01 µM (inactive). The GI50 [52] was 0.23 µM (active), the GI50 [53] was 0.215 µM (active) and the GI50 [54] was 14 µM (inactive). The GI50 [55] was 0.382 µM (active), the GI50 [56] was 3.24 µM (inactive) and the GI50 [57] was 2 µM (inactive). For the same compound, the GI50 [58] was 11.2 µM (inactive).

For `CON(C)C(=O)CNC(=O)OCC1c2ccccc2-c2ccccc21`, the GI50 [1] was 84.5 µM (inactive), the GI50 [2] was > 100 µM (inactive) and the GI50 [3] was > 100 µM (inactive). For the same compound, the GI50 [59] was > 100 µM (inactive), the GI50 [4] was > 100 µM (inactive) and the GI50 [5] was 68.4 µM (inactive). For the same compound, the GI50 [6] was > 100 µM (inactive), the GI50 [7] was > 100 µM (inactive) and the GI50 [8] was > 100 µM (inactive). The GI50 [10] was > 100 µM (inactive), the GI50 [11] was 93.1 µM (inactive) and the GI50 [12] was > 100 µM (inactive). The GI50 [13] was > 100 µM (inactive), the GI50 [14] was > 100 µM (inactive) and the GI50 [15] was > 100 µM (inactive). The GI50 [16] was > 100 µM (inactive), the GI50 [17] was > 100 µM (inactive) and the GI50 [18] was > 100 µM (inactive). The GI50 [19] was > 100 µM (inactive), the GI50 [20] was 98.4 µM (inactive) and the GI50 [21] was > 100 µM (inactive). The GI50 [22] was > 100 µM (inactive), the GI50 [23] was 78 µM and the GI50 [24] was 30.6 µM (inactive). For the same compound, the GI50 [25] was > 100 µM (inactive), the GI50 [26] was > 100 µM (inactive) and the GI50 [27] was > 100 µM (inactive). The GI50 [28] was > 100 µM (inactive), the GI50 [29] was > 100 µM (inactive) and the GI50 [30] was > 100 µM (inactive). For the same compound, the GI50 [31] was 36.2 µM (inactive), the GI50 [32] was > 100 µM (inactive) and the GI50 [33] was 25.5 µM (inactive). The GI50 [34] was > 100 µM (inactive), the GI50 [35] was > 100 µM (inactive) and the GI50 [36] was > 100 µM (inactive). For the same compound, the GI50 [37] was > 100 µM (inactive), the GI50 [38] was > 100 µM (inactive) and the GI50 [39] was 18.6 µM (inactive). The GI50 [40] was > 100 µM (inactive), the GI50 [41] was > 100 µM (inactive) and the GI50 [42] was 40.7 µM (inactive). For the same compound, the GI50 [43] was > 100 µM (inactive), the GI50 [44] was > 100 µM (inactive) and the GI50 [45] was 85.1 µM (inactive). The GI50 [46] was > 100 µM (inactive), the GI50 [47] was > 100 µM (inactive) and the GI50 [48] was 18.8 µM (inactive). The GI50 [49] was > 100 µM (inactive), the GI50 [50] was > 100 µM (inactive) and the GI50 [51] was > 100 µM (inactive). The GI50 [52] was 37.9 µM (inactive), the GI50 [53] was > 100 µM (inactive) and the GI50 [54] was > 100 µM (inactive). The GI50 [55] was 44.1 µM (inactive), the GI50 [56] was > 100 µM (inactive) and the GI50 [57] was 63.2 µM (inactive). The GI50 [58] was 57.5 µM (inactive).

With `Cc1sc2nc(N(C)C)oc(=O)c2c1C` the GI50 [1] was 72.4 µM (inactive), the GI50 [2] was 34.5 µM (inactive) and the GI50 [3] was 61.2 µM (inactive). For the same compound, the GI50 [59] was > 100 µM (inactive), the GI50 [4] was 86.1 µM (inactive) and the GI50 [5] was 58.7 µM (inactive). For the same compound, the GI50 [6] was > 100 µM (inactive), the GI50 [7] was > 100 µM (inactive) and the GI50 [8] was > 100 µM (inactive). For the same compound, the GI50 [9] was 76.9 µM (inactive), the GI50 [10] was > 100 µM (inactive) and the GI50 [11] was > 100 µM (inactive). For the same compound, the GI50 [12] was 51.5 µM (inactive), the GI50 [13] was > 100 µM (inactive) and the GI50 [14] was > 100 µM (inactive). For the same compound, the GI50 [15] was > 100 µM (inactive), the GI50 [16] was 85.9 µM (inactive) and the GI50 [17] was > 100 µM (inactive). For the same compound, the GI50 [18] was > 100 µM (inactive), the GI50 [19] was > 100 µM (inactive) and the GI50 [20] was > 100 µM (inactive). The GI50 [21] was > 100 µM (inactive), the GI50 [23] was 82.6 µM and the GI50 [24] was 40.8 µM (inactive). The GI50 [25] was > 100 µM (inactive), the GI50 [26] was 73.5 µM (inactive) and the GI50 [27] was 25 µM (inactive). For the same compound, the GI50 [28] was > 100 µM (inactive), the GI50 [29] was > 100 µM (inactive) and the GI50 [30] was > 100 µM (inactive). The GI50 [31] was 41.3 µM (inactive), the GI50 [32] was > 100 µM (inactive) and the GI50 [33] was 37.9 µM (inactive). For the same compound, the GI50 [34] was 70 µM (inactive), the GI50 [35] was 59.6 µM (inactive) and the GI50 [36] was > 100 µM (inactive). The GI50 [37] was > 100 µM (inactive), the GI50 [38] was 30.8 µM (inactive) and the GI50 [39] was > 100 µM (inactive). The GI50 [40] was 15.8 µM (inactive), the GI50 [41] was > 100 µM (inactive) and the GI50 [42] was 63.4 µM (inactive). The GI50 [43] was 7.01 µM (inactive), the GI50 [44] was > 100 µM (inactive) and the GI50 [45] was 63.1 µM (inactive). The GI50 [46] was > 100 µM (inactive), the GI50 [47] was > 100 µM (inactive) and the GI50 [48] was > 100 µM (inactive). The GI50 [49] was > 100 µM (inactive), the GI50 [50] was > 100 µM (inactive) and the GI50 [51] was > 100 µM (inactive). For the same compound, the GI50 [52] was 73.8 µM (inactive), the GI50 [53] was > 100 µM (inactive) and the GI50 [54] was > 100 µM (inactive). The GI50 [55] was 94.6 µM (inactive), the GI50 [56] was 79.8 µM (inactive) and the GI50 [57] was 21.6 µM (inactive). For the same compound, the GI50 [58] was 81.3 µM (inactive).
